In US20140158116A1, “INHIBITING TRPA1 FOR THE TREATMENT OF ASTHMA” (Cubist Pharmaceuticals, Inc., priority 2012, published 2014):
Entries after “also recorded” stand apart in the source; their conditions may differ.

Columns and labels:
[1] = test system: incisional spontaneous pain (guarding); experiment: Surgical incision (Brennan) pain behavior rodent model; type: in vivo, rat
Description: The compound of Formula (Ia) is also active in rodent models of pain in vivo induced by incision of the plantar surface of the hind paw (i.e., the “Brennan Surgical Model”), as described in Example 7. […] Thirty (30) mg/kg of the compound of Formula (Ia) delivered intraperitoneally (2 doses of 15 mg/kg before and immediately after the surgery) reduces spontaneous pain for up to 2 hours after surgery (FIG. 4). The compound of Formula (Ia), the comparator compound of Formula (III) and ketoprofen were tested by the incisional pain test method reported in Brennan et al., Pain, 1996 March; 64(3):493-501 incorporated herein by reference in its entirety. Briefly, in rats under anesthesia, a 1 cm incision through skin and underlying muscle was made in the bottom of one hind paw. The incision was sutured closed and the animals allowed to regain consciousness in their home cage before being placed on a special mesh rack. The blinded observer subjectively assessed and recorded each animal's pain score every 5 minutes for 1 hour. Pain scores were assigned as follows: Score of 0=Injured paw was held flat on the rack and was bearing weight (=uninjured paw); 1=Injured paw was slightly lifted from the rack but was bearing some weight; 2=Injured paw was flat but was bearing no weight, or heel was lifted high off the rack with only toes touching. At the end of each hour, pain scores were added up and the final score recorded ([…]). In a typical study the efficacy of the drug treatment was determined by comparing the cumulative guarding scores at 1-2 and 3-4 hours following surgical injury to the cumulative guarding scores of animals that received the vehicle.

[2] = biological target: hTRPA1 (Homo sapiens, UniProt O75762); experiment: hTrpA1 IC50 measured in 1% RSA (rat serum albumin); type: cell-based
hTRPA1, sequence (O75762 whole entry): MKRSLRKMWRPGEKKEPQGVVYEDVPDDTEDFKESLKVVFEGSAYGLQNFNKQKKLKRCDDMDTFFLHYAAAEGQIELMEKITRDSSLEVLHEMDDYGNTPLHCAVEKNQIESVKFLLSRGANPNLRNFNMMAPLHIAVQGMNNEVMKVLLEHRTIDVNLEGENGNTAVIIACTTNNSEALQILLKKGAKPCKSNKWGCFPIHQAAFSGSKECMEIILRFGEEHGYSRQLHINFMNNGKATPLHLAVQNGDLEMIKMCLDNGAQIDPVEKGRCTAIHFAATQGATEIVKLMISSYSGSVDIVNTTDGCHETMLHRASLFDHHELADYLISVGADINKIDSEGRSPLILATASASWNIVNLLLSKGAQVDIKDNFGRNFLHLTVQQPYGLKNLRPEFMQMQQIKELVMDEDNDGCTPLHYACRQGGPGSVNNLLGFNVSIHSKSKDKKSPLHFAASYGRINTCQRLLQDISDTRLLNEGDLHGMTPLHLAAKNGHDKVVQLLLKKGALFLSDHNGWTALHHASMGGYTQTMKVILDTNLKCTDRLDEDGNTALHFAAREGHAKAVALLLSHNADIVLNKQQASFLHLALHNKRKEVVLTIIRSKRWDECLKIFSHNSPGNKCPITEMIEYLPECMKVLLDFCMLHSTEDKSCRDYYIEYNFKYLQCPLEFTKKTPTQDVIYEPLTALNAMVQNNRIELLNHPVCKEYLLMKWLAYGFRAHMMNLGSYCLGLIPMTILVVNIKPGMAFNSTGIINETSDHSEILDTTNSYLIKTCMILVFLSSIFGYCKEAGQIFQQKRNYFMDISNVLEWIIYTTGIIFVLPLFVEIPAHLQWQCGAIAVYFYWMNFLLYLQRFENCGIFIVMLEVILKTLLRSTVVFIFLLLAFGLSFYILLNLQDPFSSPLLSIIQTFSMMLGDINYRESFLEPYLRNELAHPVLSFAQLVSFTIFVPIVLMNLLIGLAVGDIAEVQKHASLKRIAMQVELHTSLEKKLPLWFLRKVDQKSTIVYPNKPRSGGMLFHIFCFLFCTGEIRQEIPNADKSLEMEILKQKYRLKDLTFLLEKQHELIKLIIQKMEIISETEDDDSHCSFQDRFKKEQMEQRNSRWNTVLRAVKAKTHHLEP

[3] = test system: formalin-induced pain behavior; experiment: Formalin-induced pain behavior in vivo rodent model; design: species or system rat; settings: vehicle 88.6
Excerpt: The data shown in Tables 3a, 3b, and 3c and FIG. 2 were obtained by administering a pharmaceutical composition comprising the compound of Formula (Ia) to rodents in the formalin-induced pain duration at various doses according to Example 5. Specifically, the data in Tables 3a, 3b, and 3c and FIG. 2 were obtained by intraperitoneal (i.p.) administration of compositions containing different concentrations of the compound of Formula (Ia), a comparator composition containing recited amounts of the comparator compound (e.g., 150 mg/kg of the comparator compound of Formula (II) in Table 3a) and a control composition containing the vehicle (e.g., without the compound of Formula (Ia) or a comparator compound).
The compound of Formula (Ia) and the comparator compounds of Formula (II) and Formula (III) were tested in the formalin-induced pain test reported by Dubuisson et al., Pain 1977 December; 4(2):161-74 (incorporated herein by reference in its entirety). Dubuisson et al. (1977) describe a method for assessing pain and analgesia in rats and cats. Briefly, dilute formalin (50 μL of 3% formalin) is injected into the plantar surface of the hind paw. […] The individual responsible for counting the pain behaviors in a particular study is blinded to the treatment groups.
Rats were treated with the HCl salt of Compound (Ia) at various doses (3, 10, 30, and 50 mg/kg, IP) or with the vehicle (IP).

[4] = biological target: hTRPM8 (Homo sapiens, UniProt Q7Z2W7); experiment: Patch clamp selectivity, hTRPM8; type: cell-based
hTRPM8, sequence (Q7Z2W7 whole entry): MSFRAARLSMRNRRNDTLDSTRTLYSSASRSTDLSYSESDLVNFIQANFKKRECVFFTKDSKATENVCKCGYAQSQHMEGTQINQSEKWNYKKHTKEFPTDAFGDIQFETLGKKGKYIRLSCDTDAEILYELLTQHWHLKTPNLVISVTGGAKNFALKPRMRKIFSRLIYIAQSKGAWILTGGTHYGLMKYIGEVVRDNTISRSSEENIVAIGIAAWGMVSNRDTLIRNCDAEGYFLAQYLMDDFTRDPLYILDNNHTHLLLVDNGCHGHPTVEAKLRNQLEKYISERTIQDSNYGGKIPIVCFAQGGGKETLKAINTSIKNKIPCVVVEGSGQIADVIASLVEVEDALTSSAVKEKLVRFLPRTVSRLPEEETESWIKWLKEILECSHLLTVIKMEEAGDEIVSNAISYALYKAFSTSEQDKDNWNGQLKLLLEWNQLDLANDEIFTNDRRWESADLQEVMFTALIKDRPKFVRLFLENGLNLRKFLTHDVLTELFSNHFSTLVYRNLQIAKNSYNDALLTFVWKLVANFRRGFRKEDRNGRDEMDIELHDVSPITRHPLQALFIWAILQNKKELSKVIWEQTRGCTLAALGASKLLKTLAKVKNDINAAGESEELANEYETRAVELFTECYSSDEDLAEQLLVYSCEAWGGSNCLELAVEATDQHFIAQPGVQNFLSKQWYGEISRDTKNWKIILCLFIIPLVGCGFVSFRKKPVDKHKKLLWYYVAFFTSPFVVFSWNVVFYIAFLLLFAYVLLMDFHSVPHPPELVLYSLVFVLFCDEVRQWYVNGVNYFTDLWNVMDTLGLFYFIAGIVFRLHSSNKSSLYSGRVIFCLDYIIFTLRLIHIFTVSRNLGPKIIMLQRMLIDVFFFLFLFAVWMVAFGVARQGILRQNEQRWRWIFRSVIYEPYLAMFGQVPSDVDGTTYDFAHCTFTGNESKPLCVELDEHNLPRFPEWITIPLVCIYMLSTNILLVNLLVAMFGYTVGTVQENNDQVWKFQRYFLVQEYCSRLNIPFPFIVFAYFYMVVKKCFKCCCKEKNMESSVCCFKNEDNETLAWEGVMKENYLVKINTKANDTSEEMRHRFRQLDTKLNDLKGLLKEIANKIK
Description: (§1) Data for TRPA1 inhibition and the selectivity of TRPA1 inhibition was obtained by this method for the compound of Formula (Ia) and included in Table 1 and Table 2. All currents were recorded in whole-cell configuration using EPC-9 and EPC-10 amplifiers and Patchmaster software (HEKA). […] The standard pipette solution consisted of 140 mM CsAsp, 10 mM EGTA, 10 mM HEPES, 2.27 mM MgCl2, 1.91 mM CaCl2, 4 mM MgATP, and 0.1-0.3 mM Na2GTP, with pH adjusted to 7.2 with CsOH. In addition, a solution containing 145 mM CsCl, 10 mM HEPES, 10 mM EGTA and 1 mM MgCl2 (pH 7.2 adjusted with CsOH) can be used. The standard bath solution contained 150 mM NaCl, 10 mM HEPES, 10 mM glucose, 4.5 mM KCl, 1 mM EGTA, 3 mM MgCl2, with pH adjusted to 7.4 with NaOH. In some instances, 2 mM CaCl2 was added in place of EGTA and the concentration of MgCl2 was reduced to 1 mM.
(§2) Data were collected either by continuous recordings at −60 mV or by applying voltage ramps from a holding potential of 0 mV every 4 s. […] Inward and outward currents were analyzed from the ramps at −80 and 80 mV, respectively. […]
(§3) Solutions were switched using a gravity-fed continuous focal perfusion system. […] Temperatures were confirmed using a thermistor (Warner Instruments, TA-29), with temperatures at the recorded cell estimated to be within +/−2° C. of those reported. […]

[5] = biological target: hTRPV1 (Homo sapiens, UniProt Q8NER1); experiment: Patch clamp selectivity, hTRPV1; type: cell-based
hTRPV1, sequence (Q8NER1 whole entry): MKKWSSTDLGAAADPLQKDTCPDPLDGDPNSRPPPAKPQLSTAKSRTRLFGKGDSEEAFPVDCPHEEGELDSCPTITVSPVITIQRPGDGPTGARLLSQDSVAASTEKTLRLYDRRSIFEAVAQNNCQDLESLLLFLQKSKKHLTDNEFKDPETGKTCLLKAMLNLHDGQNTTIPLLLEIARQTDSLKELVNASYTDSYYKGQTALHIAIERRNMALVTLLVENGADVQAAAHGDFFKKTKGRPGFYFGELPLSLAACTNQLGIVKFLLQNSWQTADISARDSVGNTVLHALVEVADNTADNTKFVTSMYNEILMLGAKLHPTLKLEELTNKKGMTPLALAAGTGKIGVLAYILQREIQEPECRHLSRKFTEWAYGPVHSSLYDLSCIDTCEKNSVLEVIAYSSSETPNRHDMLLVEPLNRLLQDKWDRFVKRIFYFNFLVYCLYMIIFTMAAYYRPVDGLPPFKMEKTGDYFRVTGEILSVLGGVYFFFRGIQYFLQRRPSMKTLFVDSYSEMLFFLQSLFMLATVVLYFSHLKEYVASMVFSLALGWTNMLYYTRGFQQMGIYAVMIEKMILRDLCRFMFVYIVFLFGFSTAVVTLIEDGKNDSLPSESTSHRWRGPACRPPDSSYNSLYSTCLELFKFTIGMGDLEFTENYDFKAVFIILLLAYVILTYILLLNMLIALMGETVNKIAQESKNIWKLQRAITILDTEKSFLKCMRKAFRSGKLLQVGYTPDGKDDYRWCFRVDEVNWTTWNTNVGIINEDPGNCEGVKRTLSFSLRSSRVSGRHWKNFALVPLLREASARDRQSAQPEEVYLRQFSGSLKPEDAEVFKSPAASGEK
Description: as §1, §2, §3

## C[C@H]1CCCN1c1ncc(-c2cccc(NC(=O)Cn3cnc4c3c(=O)n(C)c(=O)n4C)n2)cn1 [Formula (Ia)]
[1]; 30 mg/kg intraperitoneally (2 doses of 15 mg/kg before and immediately after the surgery)
  time after surgery for which spontaneous pain is reduced: up to 2 hours
[1]; 60 mg/kg i.p. versus ketoprofen 2 doses of 2 mg/kg intraperitoneally
  reduction of spontaneous pain compared with ketoprofen: equivalent to ketoprofen; also recorded: better than ketoprofen
[1]; 60 mg/kg intraperitoneally (2 doses of 30 mg/kg before and immediately after the surgery)
  time after surgery for which spontaneous pain is reduced: up to 4 hours
[2]
  IC50: 5.3 µM
[3]; 3 mg/kg i.p.
  Duration of Pain Behavior: 82.3 s
[3]; 10 mg/kg i.p.
  Duration of Pain Behavior: 85.8 s
[3]; 30 mg/kg i.p.
  Duration of Pain Behavior: 49.8 s
[3]; 50 mg/kg i.p.
  Duration of Pain Behavior: 5.9 s
[4]
  Fold Selectivity Compared to TRPA1: ~200 fold
[4]; 100 micromolar Menthol, Inward (−80 mV)
  IC50: 19 µM
[5]
  Fold Selectivity Compared to TRPA1: >100 fold
[5]; 500 nanomolar Capsaicin, Inward (−80 mV)
  IC50: > 10 µM
